Experimental findings from patent US20080118940A1, “PROTEASOMAL PEPTIDASE ACTIVITY AND THE USE THEREOF IN CLINICAL APPLICATIONS” (priority 2006, published 2008) are described below.

Data set [1] deals with proteasomal chymotrypsin-like activity (Ch-L). Description: Proteasome inhibitor effect on chymotrypsin-like (Ch-L) peptidase activity, fluorogenic Suc-LLVY-AMC assay. The data set is classed as biochemical, human. To be noted: purified proteasome, plasma and white blood cell lysate; YU-101 0.4 μg/mL; substrate 200 μM. The method, then:
(§1) Ch-L, Tr-L, and Cas-L activities in peripheral blood plasma from patients were measured as follows. Frozen patient plasma samples were processed by thawing at room temperature and mixed thoroughly. 45 μL of thawed plasma was pipetted into a microfuge tube (Tube 1), and 22.5 μL plasma was pipetted into another microfuge tube (Tube 2). 5 μL 10% SDS was pipetted into Tube 1, and 2.5 μL 10% tween 20 was pipetted into Tube 2. Each tube was mixed and incubated at room temperature for 15 minutes resulting in processed samples. All buffers, substrate stock solutions, controls, and microwell plates were equilibrated to room temperature. The proteasome control was placed on ice immediately after thawing. […] Cleavage of substrate was detected using the SPECTRAmax GEMINI EM instrument with SoftMax Pro data Collection software. […] Fluorescence excitation and emission wavelengths were 380 nm and 460 nm, respectively. Samples were read at 1 minute intervals over 30 minutes. Green fluorescence was detected in columns 1, 4, 7, and 10, representing Ch-L activity; blue fluorescence was detected in columns 3, 6, 9, and 12, representing Cas-L activity; and yellow fluorescence was detected in columns 2, 5, 8, and 11, representing Tr-L activity. […]

The subject of data set [2] is proteasomal trypsin-like activity (Tr-L). Description: Proteasome inhibitor effect on trypsin-like (Tr-L) peptidase activity, fluorogenic BZ-VGR-AMC assay. The format is biochemical, human. To be noted: purified proteasome, plasma and white blood cell lysate; YU-101 0.4 μg/mL; substrate 200 μM. The method, then:
as §1

Data set [3] has as its target T1, proteasomal caspase-like activity (Cas-L) (Homo sapiens, UniProt P28072).
T1 construct: in samples of purified proteasome, plasma, and white blood cell lysate; from tissue; host or cells: purified proteasome; plasma; white blood cell lysate (normal individuals)
T1 sequence (P28072 1-239): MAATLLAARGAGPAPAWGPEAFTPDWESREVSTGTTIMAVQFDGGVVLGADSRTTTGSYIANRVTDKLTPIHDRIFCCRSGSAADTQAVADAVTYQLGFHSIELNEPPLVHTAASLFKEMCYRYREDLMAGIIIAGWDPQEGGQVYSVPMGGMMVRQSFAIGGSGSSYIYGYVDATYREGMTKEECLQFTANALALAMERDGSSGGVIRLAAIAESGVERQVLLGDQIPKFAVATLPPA
Description: Proteasome inhibitor effect on caspase-like (Cas-L) peptidase activity, fluorogenic Z-LLE-AMC assay. The data set is classed as biochemical. The settings on record: purified proteasome, plasma and white blood cell lysate; YU-101 0.4 μg/mL; substrate 200 μM. The method, then: as §1

The subject of data set [4] is proteasome Ch-L activity in plasma from an AML patient. Description: Dose response of Ch-L activity in plasma from an AML patient. The data set is classed as biochemical, human. The settings on record: for % Inhibition / Activity: AML patient plasma. The protocol:
(§2) Ch-L, Tr-L, and Cas-L activities in peripheral blood plasma from patients were measured as follows. Frozen patient plasma samples were processed by thawing at room temperature and mixed thoroughly. 45 μL of thawed plasma was pipetted into a microfuge tube (Tube 1), and 22.5 μL plasma was pipetted into another microfuge tube (Tube 2). 5 μL 10% SDS was pipetted into Tube 1, and 2.5 μL 10% tween 20 was pipetted into Tube 2. Each tube was mixed and incubated at room temperature for 15 minutes resulting in processed samples. All buffers, substrate stock solutions, controls, and microwell plates were equilibrated to room temperature. The proteasome control was placed on ice immediately after thawing. Substrate working solutions (1 mM) were made by adding 950 μL buffer A (1×HEPES/0.05% SDS) to 50 μL stock solution of Ch-L and Cas-L substrates (20 mM Suc-LLVY-AMC and 20 mM Z-LLE-AMC) and mixed. 950 μL buffer B (1×HEPES/0.05% Tween 20) was added to 50 μL stock solution of Tr-L substrate (20 mM BZ-VGR-AMC) and mixed. Working solutions were protected from light. A microwell plate (containing 12 columns of wells) was set-up according to a plate map as follows: 30 μL buffer A was pipetted into the wells of columns 1, 4, 7, and 10 (to measure Ch-L activity) and 3, 6, 9, and 12 (to measure Cas-L activity). 30 μL buffer B was pipetted into the wells of columns 2, 5, 8, and 11 (to measure Tr-L). 10 μL buffer A or B served as blank controls. 10 μL of processed samples were pipetted into duplicate wells for each substrate (i.e., 6 wells per processed plasma sample), to the designated wells according to the plate map. 10 μL of substrate was added to the designated wells according to the plate map. The final concentration of substrate was 200 μM. Cleavage of substrate was detected using the SPECTRAmax GEMINI EM instrument with SoftMax Pro data Collection software. The instrument incubation chamber temperature was set to 37° C. Fluorescence excitation and emission wavelengths were 380 nm and 460 nm, respectively. Samples were read at 1 minute intervals over 30 minutes. Green fluorescence was detected in columns 1, 4, 7, and 10, representing Ch-L activity; blue fluorescence was detected in columns 3, 6, 9, and 12, representing Cas-L activity; and yellow fluorescence was detected in columns 2, 5, 8, and 11, representing Tr-L activity.
A dose response study was conducted to determine the effect of concentration of YU-101 on Ch-L activity as assayed in plasma from an AML patient. YU-101 (200 ng/μL) was serially diluted 1:4 in HEPES buffer to produce solutions having concentrations of 0.78, 3.125, 12.5, 50, and 200 ng/μL for dose response experiments. 70 μL of plasma from an AML patient was combined with 1 μL inhibitor solution and incubated at room temperature for 15 minutes. Ch-L activity was determined as in Example 1.

Data set [5] relates to proteasome Ch-L activity in whole blood cell lysate from a normal individual. Description: Dose response of Ch-L activity in whole blood lysate from a normal individual. The format is biochemical, human. Also on record: Activity: unit not given beside the values. The settings on record: for % Inhibition / Activity: whole blood, normal individual. The protocol:
as §2
A dose response study was conducted to determine the effect of concentration of YU-101 on Ch-L activity in a whole blood lysate from a normal individual. YU-101 (200 ng/μL) was serially diluted 1:2 in HEPES buffer to produce solutions having concentrations of 6.25, 12.5, 25, 50, and 100 ng/μL for dose response experiments. 70 μL of […] was combined with 1 μL inhibitor solution and incubated at room temperature for 15 minutes. Ch-L activity was determined as in Example 1.

Data set [6] concerns the target T2, Pure human 20S proteasome (Homo sapiens, UniProt P28074).
T2 construct: purchased Biomol International PW8720-0050
Kind of data set: Specificity of proteasomal enzymatic assay: Ch-L activity of purified 20S proteasome. The data set is classed as biochemical. To be noted: Suc-LLVY-AMC.

Data set [7] concerns the target T3, human pancreatic α-chymotrypsin (Homo sapiens, UniProt P17538).
T3 construct: purchased Sigma C-8946; host or cells: isolated from human pancreas
Kind of data set: Specificity of proteasomal enzymatic assay: pancreatic chymotrypsin activity. The data set is classed as biochemical. To be noted: Suc-LLVY-AMC. The protocol:
as §1

T3 sequence (P17538 34-164 limits assumed, other chains not shown): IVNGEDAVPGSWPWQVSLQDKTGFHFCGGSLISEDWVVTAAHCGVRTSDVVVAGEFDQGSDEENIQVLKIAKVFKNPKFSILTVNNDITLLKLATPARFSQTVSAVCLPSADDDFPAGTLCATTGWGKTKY
T3 sequence (P17538 167-263 limits assumed, other chains not shown): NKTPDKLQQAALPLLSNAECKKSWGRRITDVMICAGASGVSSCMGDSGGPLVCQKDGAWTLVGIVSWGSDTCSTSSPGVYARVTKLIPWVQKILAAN

Consider `CC(=O)NC(CCc1ccccc1)C(=O)NC(CC(C)C)C(=O)NC(Cc1ccccc1)C(=O)NC(CC(C)C)C(=O)C1(C)CO1` (centres unmarked) [YU-101], for which the “inhibition of chymotrypsin-L activity” value in data set [1] is reported as “strong inhibitor”. In data set [2], the “inhibition of trypsin-L activity” value is recorded as “weaker inhibitor”. In addition, the “inhibition of caspase-L activity” value in data set [3] is “weaker inhibitor”. Moreover, the % Inhibition (in general, the change of the read-out against control, counted positive when it falls) in data set [4] (approx. YU-101 0.00156 ng/μL) is 0.00%; in data set [4] (approx. YU-101 0.00625 ng/μL), 8.98%; in data set [4] (approx. YU-101 0.025 ng/μL) it was 38.41%; in data set [4] (approx. YU-101 0.1 ng/μL), 62.54%; in data set [4] (approx. YU-101 0.4 ng/μL), 69.56%; in data set [5] (approx. YU-101 0.0125 ng/μL), 3.2%. Further, the “% Inhibition” value in data set [5] (approx. YU-101 0.025 ng/μL) was found to be 24.0%; in data set [5] (approx. YU-101 0.05 ng/μL), 38.4%; in data set [5] (approx. YU-101 0.1 ng/μL) it was 82.0%; in data set [5] (approx. YU-101 0.2 ng/μL), 92.6%. The Activity in data set [4] (approx. YU-101 0.00156 ng/μL) is on record as 233781; in data set [4] (approx. YU-101 0.00625 ng/μL), 212786; in data set [4] (approx. YU-101 0.025 ng/μL) it was 143991; in data set [4] (approx. YU-101 0.1 ng/μL), 87573; in data set [4] (approx. YU-101 0.4 ng/μL), 71162; in data set [5] (approx. YU-101 0.0125 ng/μL) it was 92002. The Activity in data set [5] (approx. YU-101 0.025 ng/μL) was found to be 72252; in data set [5] (approx. YU-101 0.05 ng/μL), 58544; in data set [5] (approx. YU-101 0.1 ng/μL), 17070; in data set [5] (approx. YU-101 0.2 ng/μL), 7024. In addition, the “inhibition of Ch-L activity, dose dependence” value in data set [4] (plasma of an AML patient) and in data set [5] (whole blood cell lysate from a normal individual) was “dose-dependent” in each case. Besides, the “Vmax Ch-L (fluorescence)” value is on record as “No activity” in data set [6] (purified 20S proteasome + YU-101, final 4 ng/μL) and “No activity” in data set [7] (pancreatic α-chymotrypsin + YU-101, final 4 ng/μL).

B1: α1-anti-chymotrypsin: pancreatic chymotrypsin inhibitor (Sigma, catalog #A9285) (protein, UniProt P01011 24-423, looked up)
Alpha-1-antichymotrypsin: HPNSPLDEENLTQENQDRGTHVDLGLASANVDFAFSLYKQLVLKAPDKNVIFSPLSISTALAFLSLGAHNTTLTEILKGLKFNLTETSEAEIHQSFQHLLRTLNQSSDELQLSMGNAMFVKEQLSLLDRFTEDAKRLYGSEAFATDFQDSAAAKKLINDYVKNGTRGKITDLIKDLDSQTMMVLVNYIFFKAKWEMPFDPQDTHQSRFYLSKKKWVMVPMMSLHHLTIPYFRDEELSCTVVELKYTGNASALFILPDQDKMEEVEAMLLPETLKRWRDSLEFREIGELYLPKFSISRDYNLNDILLQLGIEEAFTSKADLSGITGARNLAVSQVVHKAVLDVFEEGTEASAATAVKITLLSALVETRTIVRFNRPFLMIIVPTDTQNIFFMSKVTNPKQA
As to B1, the “Vmax Ch-L (fluorescence)” value is listed as 121,813 in data set [6] (purified 20S proteasome + α1-anti-chymotrypsin, final 40 ng/μL) and “No activity” in data set [7] (pancreatic α-chymotrypsin + α1-anti-chymotrypsin, final 40 ng/μL).
